Measured values as given in patent US4963541A, “Pyrimido-pyrimidine lipoxygenase inhibiting compounds” (Abbott Laboratories, priority 1989, dated 1990).

Key:
5-lipoxygenase [1] = settings: Young, Dyer, Carter, Federation Proceedings 44(4):904, 1985; cited from earlier work
5-lipoxygenase [2] = target: T1, 5-lipoxygenase (Rattus norvegicus, UniProt P12527); test: Inhibition of 5-lipoxygenase activity (20,000x g supernatant from homogenized RBL-1 cells); assay type: biochemical; settings: In vitro, 20,000x g supernatant from homogenized RBL-1 cells
T1 construct: 20,000x g supernatant from homogenized RBL-1 cells; endogenous in cells; host or cells: RBL-1 cells (20,000x g supernatant of homogenate)
T1 sequence (P12527 1-673): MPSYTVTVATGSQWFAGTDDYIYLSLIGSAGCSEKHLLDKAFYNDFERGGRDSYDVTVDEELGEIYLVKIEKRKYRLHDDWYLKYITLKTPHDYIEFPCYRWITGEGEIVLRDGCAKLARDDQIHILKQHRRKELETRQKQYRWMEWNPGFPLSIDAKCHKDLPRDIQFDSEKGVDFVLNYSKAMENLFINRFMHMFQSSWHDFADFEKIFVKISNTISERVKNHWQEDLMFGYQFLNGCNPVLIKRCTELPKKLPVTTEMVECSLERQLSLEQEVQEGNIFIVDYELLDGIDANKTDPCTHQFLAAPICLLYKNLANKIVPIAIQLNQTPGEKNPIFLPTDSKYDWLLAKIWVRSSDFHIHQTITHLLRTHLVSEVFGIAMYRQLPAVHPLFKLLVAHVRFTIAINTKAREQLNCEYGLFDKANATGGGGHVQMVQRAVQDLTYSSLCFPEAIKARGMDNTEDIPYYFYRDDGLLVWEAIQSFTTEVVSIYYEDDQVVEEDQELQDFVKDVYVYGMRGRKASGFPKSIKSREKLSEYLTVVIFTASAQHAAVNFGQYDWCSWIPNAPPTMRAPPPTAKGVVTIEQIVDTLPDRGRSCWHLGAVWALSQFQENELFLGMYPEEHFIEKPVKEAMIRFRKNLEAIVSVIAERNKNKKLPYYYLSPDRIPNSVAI
Procedure: Inhibition of 5-lipoxygenase activity was determined using the 20,000x g supernatant from homogenized RBL-1 cells in a similar manner as that described by Dyer and coworkers (Dyer, R.D.; Haviv, F,; Hanel, A. M.; Bornemier, D. A.; Carter, G. W. Fed. Proc., Fed. Am. Soc. Exp. Biol. 1984, 43, 1462A). IC50 values (concentration of compound producing 50% enzyme inhibition) were calculated by linear regression analysis of percentage inhibition versus log inhibitor concentration plots.

[3] = Drugs of the Future, 8, 1023, 1983; cited from earlier work
tumor cell growth = settings: in rats; Ger. Offen. 2931, 573; cited from earlier work

| Structure (SMILES) | IC50 (5-lipoxygenase [2]) [nM] | also measured |
| --- | --- | --- |
| OCCN(CCO)c1nc(N2CCCCC2)c2nc(N(CCO)CCO)nc(N3CCCCC3)c2n1 [dipyridamole, 2,6-bis-(diethanolamino)-4,8-dipiperidinopyrimido[5,4-d]pyrimidine] |  | reported to be an inhibitor of 5-lipoxygenase (5-lipoxygenase [1]): inhibitor of 5-lipoxygenase |
| OCCNc1nc(N2CCCCC2)c2nc(NCCO)nc(N3CCCCC3)c2n1 [Example 2, 2,6-bis-Aminoethanol-4,8-bis-N-piperidinopyrimido[5,4-d]pyrimidine] | 2900 |  |
| CN(CCO)c1nc(N2CCCCC2)c2nc(N(C)CCO)nc(N3CCCCC3)c2n1 [Example 1, 2,6-bis-2-(Methylamino)ethanol-4,8-bis-N-piperidinopyrimido[5,4-d]pyrimidine] | 340 |  |
| CCN(CC)c1nc(N(CCO)CCOC)nc2c(N(CC)CC)nc(N(CCO)CCOC)nc12 [2,6-bis-(2-hydroxyethyl-2-methoxyethylamino)-4,8-bis-(diethylamino)pyrimido[5,4-d]pyrimidine] |  | reported to be a hypertensive agent [3]: hypertensive agent |
| OCCN(CCO)c1nc(N2CCCCC2)c2nc(N(CCO)CCO)ncc2n1 [2,6-bis-(diethanolamino)-4-piperidinopyrimido[5,4d]pyridimine] |  | inhibit tumor cell growth (tumor cell growth): shown to inhibit tumor cell growth in rats |

The next lines start with results.

| IC50 (5-lipoxygenase [2]) [nM] | Structure (SMILES) | also measured |
| --- | --- | --- |
| 920 | CN(CCO)c1nc(N2CCCCCCC2)c2nc(N(C)CCO)nc(N3CCCCCCC3)c2n1 [Example 4, 2,6-bis-2-(Methylamino)ethanol-4,8-bis-N-perhydroazocinepyrimido[5,4-d]pyrimidine] |  |
| 300 | CN(CCO)c1nc(N2CCCCCC2)c2nc(N(C)CCO)nc(N3CCCCCC3)c2n1 [Example 3, 2,6-bis-2-(Methylamino)ethanol-4,8-bis-N-perhydroazepinepyrimido-[5,4-d]pyrimidine] |  |
